The values that follow come from patent US20230009608A1, “GRK2 INHIBITORS AND USES THEREOF” (Cygnal Therapeutics, Inc., priority 2020, published 2023).

For one test, the target named is T1, GRK2 (Homo sapiens, UniProt P25098).
T1 construct: purchased SignalChem A14-10G
T1 sequence (P25098 1-689): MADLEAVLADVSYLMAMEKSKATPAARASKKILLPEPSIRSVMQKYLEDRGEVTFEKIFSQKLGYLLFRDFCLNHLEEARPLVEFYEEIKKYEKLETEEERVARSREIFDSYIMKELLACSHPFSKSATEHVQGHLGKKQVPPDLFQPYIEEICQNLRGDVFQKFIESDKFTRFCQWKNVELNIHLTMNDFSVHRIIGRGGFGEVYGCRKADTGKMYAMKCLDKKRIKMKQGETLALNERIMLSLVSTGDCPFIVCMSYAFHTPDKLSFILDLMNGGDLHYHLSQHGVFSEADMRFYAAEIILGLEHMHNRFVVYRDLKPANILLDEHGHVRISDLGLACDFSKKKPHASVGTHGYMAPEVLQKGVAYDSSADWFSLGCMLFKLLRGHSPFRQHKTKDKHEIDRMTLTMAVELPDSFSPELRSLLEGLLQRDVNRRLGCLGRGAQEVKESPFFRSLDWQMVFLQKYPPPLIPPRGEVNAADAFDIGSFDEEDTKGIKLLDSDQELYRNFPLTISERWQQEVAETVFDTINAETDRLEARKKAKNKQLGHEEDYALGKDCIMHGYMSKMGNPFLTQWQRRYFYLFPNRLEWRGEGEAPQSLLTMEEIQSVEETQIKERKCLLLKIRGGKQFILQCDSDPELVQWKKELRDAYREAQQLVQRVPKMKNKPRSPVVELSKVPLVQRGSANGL
The experiment in a line: GRK2 Inhibition Assay (TR-FRET, Example 7). Particulars: Enzyme Assay B, TR-FRET (Example 7); read-out: B: Enzymatic GRK2: IC50 (nM) (Example 7). The format is biochemical. The procedure: Enzyme GRK2 (1 nM final concentration) was diluted in 25 mMv HEPES, 10 mM MgCl2, 2 mM DTT, 0.01% Tween-20, and 1 mM EGTA. Then the GRK2 mixture was added into ProxiPlate-384 white plate and pre-incubated for 30 min with test compounds at room temperature. ATP (7 μM final concentration) and Ulight TopoIIα (50 nM final concentration) were added into the assay plate to initiate the reaction and the mixture was incubated at room temperature for 90 min. Then, Eu anti-TopoIIα (0.12 nM final concentration), BSA (0.01% final concentration), and EDTA (11 mMv final concentration) in LANCE assay buffer were added into each well. After 60 min incubation time at room temperature, TR-FRET signal was measured by EnVision plate reader.
Background: In TR-FRET formats the signal depends on donor and acceptor labels being close together.

Test [1] relates to PAXF1657 control empty vector cell line. Put plainly: 7-day proliferation assay, PAXF1657 control empty vector cell line (Example 9). As to conditions: 168 h; Cell Line: PAXF1657 empty vector (EV) cell line; 7-day; read-out: C: 7-day proliferation assay: IC50 GeoMean. The format is cell-based. The method, boiled down: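 Read-out is CellTiter-Glo luminescence after 7 days of continuous exposure, with compound re-dosed in fresh medium at day 3. Cells were seeded at 500/well and treated across 30 μM-0.0002 μM (10 points, 0.3% DMSO); baseline viability plates were read at compound addition.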

For the compound `Cn1c(CNc2cccc(C(=O)NCc3cc[nH]n3)c2)nnc1-c1ccncn1`, the figures for the IC50 (on GRK2; in test [1]) were 39 nM and more than 10000 nM, respectively.

Turning to `CCCn1c(CNc2cncc(C(=O)NCc3ccccc3C(F)(F)F)c2)nnc1-c1ccncn1`, the IC50 is 30 nM at GRK2 and more than 30000 nM in test [1].

As to `COc1ncccc1CNC(=O)c1cccc(NCc2nnc(-c3ccncc3)n2C)c1`, the IC50 at GRK2 was 15 nM; in test [1] it was 810 nM.

On to `O=C(NCc1cccc2c1OCC2)c1cccc(NCc2nnc(-c3ccncc3)[nH]2)c1`, for which the IC50 on GRK2 is 2.9 nM; in test [1], more than 30000 nM.

Take `O=C(NCc1cccc(F)c1)c1cccc(NCc2nnc(-c3ccncc3)[nH]2)c1`: the IC50 on GRK2 was determined as 6.1 nM; in test [1] it was 14500 nM.

Take `O=C(N[C@H]1CCOc2ccccc21)c1cccc(NCc2nnc(-c3ccncc3)[nH]2)c1`: the IC50 at GRK2 is 2.1 nM; in test [1], more than 1760 nM.

Take `O=C(NCc1cccnc1C(F)(F)F)c1cccc(NCc2nnc(-c3ccncc3)[nH]2)c1`: the IC50 at GRK2 is 13 nM; in test [1], more than 30000 nM.

Turning to `COc1ccc(CNC(=O)c2cccc(NCc3nnc(-c4ccncc4)[nH]3)c2)c(F)c1`, the IC50 on GRK2 came out at 15 nM; in test [1] it was 18800 nM.

For `COc1cccc(OC)c1CNC(=O)c1cccc(NCc2nnc(-c3ccncc3)[nH]2)c1`, the IC50 at GRK2 worked out at 1.4 nM; in test [1] it was 981 nM.

Regarding `CCCn1c(CNc2cccc(C(=O)NCc3cccc4c3OCC4)c2)nnc1-c1ccncn1`, the IC50 at GRK2 was 2 nM; in test [1] it was more than 30000 nM.

As to `CCCn1c(CNc2cccc(C(=O)NCc3cccc(F)c3)c2)nnc1-c1ccncn1`, the values for the IC50 (at GRK2; in test [1]) were 5.3 nM and 19200 nM, respectively.

For the compound `CCCn1c(CNc2cccc(C(=O)N[C@H]3CCOc4ccccc43)c2)nnc1-c1ccncn1`, the IC50 on GRK2 is 2.3 nM; in test [1], more than 30000 nM.

On to `CCCn1c(CNc2cccc(C(=O)NCc3cccnc3C(F)(F)F)c2)nnc1-c1ccncn1`, for which the IC50 on GRK2 is 2.6 nM; in test [1], 667 nM.

On to `CCCn1c(CNc2cccc(C(=O)NCc3ccc(OC)cc3F)c2)nnc1-c1ccncn1`, for which the IC50 is 2.1 nM on GRK2 and more than 30000 nM in test [1].

As for `CCCn1c(CNc2cccc(C(=O)NCc3c(OC)cccc3OC)c2)nnc1-c1ccncn1`, the results for the IC50 (at GRK2; in test [1]) were 3.1 nM and more than 30000 nM, respectively.

With `CCCn1c(CNc2cccc(C(=O)NCc3ccccc3OCC)c2)nnc1-c1ccncn1`, the IC50 at GRK2 was 8.2 nM; in test [1], more than 30000 nM.

`CCCn1c(CNc2cccc(C(=O)NC3(c4ccccc4)CCOCC3)c2)nnc1-c1ccncn1`: the IC50 turned out to be 22 nM on GRK2 and 9260 nM in test [1].

Take `CCCn1c(CNc2cccc(C(=O)NCc3cccnc3OC)c2)nnc1-c1ccncn1`: the values for the IC50 (at GRK2; in test [1]) were 3.8 nM and more than 30000 nM, respectively.

As to `O=C(NCc1cccc2c1OCC2)c1cccc(NCc2nnc3n2CCOc2cnccc2-3)c1`, the IC50 was 2.4 nM on GRK2 and 3010 nM in test [1].

For `O=C(NCc1cccc(F)c1)c1cccc(NCc2nnc3n2CCOc2cnccc2-3)c1`, the IC50 at GRK2 came to 3.7 nM; in test [1] it was 7020 nM.

Take `O=C(N[C@H]1CCOc2ccccc21)c1cccc(NCc2nnc3n2CCOc2cnccc2-3)c1`: the IC50 on GRK2 is 2.6 nM; in test [1], more than 30000 nM.

Turning to `O=C(NCc1cccnc1C(F)(F)F)c1cccc(NCc2nnc3n2CCOc2cnccc2-3)c1`, the IC50 at GRK2 came out at 3.5 nM; in test [1], 6570 nM.

For `COc1ccc(CNC(=O)c2cccc(NCc3nnc4n3CCOc3cnccc3-4)c2)c(F)c1`, the IC50 at GRK2 was 1.6 nM; in test [1] it was more than 30000 nM.

Take `COc1cccc(OC)c1CNC(=O)c1cccc(NCc2nnc3n2CCOc2cnccc2-3)c1`: the IC50 on GRK2 is 6.7 nM; in test [1] it was more than 30000 nM.

As for `CCOc1ccccc1CNC(=O)c1cccc(NCc2nnc3n2CCOc2cnccc2-3)c1`, the values for the IC50 (at GRK2; in test [1]) were 9.1 nM and 2320 nM, respectively.

For `O=C(NC1(c2ccccc2)CCOCC1)c1cccc(NCc2nnc3n2CCOc2cnccc2-3)c1`, the values for the IC50 (on GRK2; in test [1]) were 39 nM and 20300 nM, respectively.

In the case of `COc1ncccc1CNC(=O)c1cccc(NCc2nnc3n2CCOc2cnccc2-3)c1`, the IC50 was 7.5 nM on GRK2 and more than 30000 nM in test [1].

Turning to `O=C(NCc1cccc2c1OCC2)c1cccc(NCc2nnc(-c3ccncc3)n2CCO)c1`, the IC50 on GRK2 turned out to be 6.3 nM; in test [1], 6080 nM.

`O=C(NCc1cccc(F)c1)c1cccc(NCc2nnc(-c3ccncc3)n2CCO)c1`: the results for the IC50 (at GRK2; in test [1]) were 9.2 nM and more than 30000 nM, respectively.

For `O=C(N[C@H]1CCOc2ccccc21)c1cccc(NCc2nnc(-c3ccncc3)n2CCO)c1`, the IC50 on GRK2 turned out to be 8.2 nM; in test [1], 4580 nM.

In the case of `O=C(NCc1cccnc1C(F)(F)F)c1cccc(NCc2nnc(-c3ccncc3)n2CCO)c1`, the IC50 on GRK2 was 5.2 nM; in test [1] it was more than 30000 nM.

`COc1ccc(CNC(=O)c2cccc(NCc3nnc(-c4ccncc4)n3CCO)c2)c(F)c1`: the IC50 on GRK2 was 4.9 nM; in test [1], more than 30000 nM.

For the compound `COc1cccc(OC)c1CNC(=O)c1cccc(NCc2nnc(-c3ccncc3)n2CCO)c1`, the IC50 is 23 nM at GRK2 and more than 30000 nM in test [1].

As to `CCOc1ccccc1CNC(=O)c1cccc(NCc2nnc(-c3ccncc3)n2CCO)c1`, the results for the IC50 (on GRK2; in test [1]) were 19 nM and 6310 nM, respectively.

As for `COc1ncccc1CNC(=O)c1cccc(NCc2nnc(-c3ccncc3)n2CCO)c1`, the results for the IC50 (at GRK2; in test [1]) were 20 nM and 256 nM, respectively.

For the compound `O=C(NCc1c(F)cccc1F)c1ccnc(NCc2nnc(-c3ccncc3)[nH]2)c1`, the IC50 is 34 nM on GRK2 and more than 30000 nM in test [1].

Consider `CCc1cnccc1CNC(=O)c1cccc(NCc2nnc(-c3ccncc3Cl)n2C)c1`, for which the IC50 on GRK2 was 79 nM; in test [1], more than 30000 nM.

On to `CCc1cnccc1CNC(=O)c1cccc(NCc2nnc(-c3ccncc3F)n2C)c1`, for which the figures for the IC50 (at GRK2; in test [1]) were 41 nM and 1480 nM, respectively.

`O=C(NCc1cccc2c1OCC2)c1cccc(NCc2nnc(-c3ccncn3)n2CCCO)c1`: the results for the IC50 (on GRK2; in test [1]) were 4.2 nM and 14500 nM, respectively.

For `O=C(NCc1cccnc1C(F)(F)F)c1cccc(NCc2nnc(-c3ccncn3)n2CCCO)c1`, the IC50 at GRK2 was 5.8 nM; in test [1] it was more than 30000 nM.

Turning to `Cn1c(CNc2cccc(C(=O)N[C@@H]3CCOc4c3ccc(F)c4F)c2)nnc1-c1ccncn1`, the results for the IC50 (at GRK2; in test [1]) were 3.3 nM and 178 nM, respectively.

With `Cn1c(CNc2cccc(C(=O)N[C@H]3CCOc4c3ccc(F)c4F)c2)nnc1-c1ccncn1`, the IC50 on GRK2 was 1500 nM; in test [1], more than 30000 nM.

Turning to `Cn1c(CNc2cccc(C(=O)N[C@@H]3CCOc4cc(F)ccc43)c2)nnc1-c1ccncn1`, the IC50 at GRK2 is 1900 nM; in test [1], 168 nM.

`Cn1c(CNc2cccc(C(=O)N[C@H]3CCOc4cc(F)ccc43)c2)nnc1-c1ccncn1`: the figures for the IC50 (on GRK2; in test [1]) were 6.4 nM and more than 30000 nM, respectively.

For the compound `Cn1c(CNc2cccc(C(=O)N[C@@H]3CCOc4ccc(F)cc43)c2)nnc1-c1ccncn1`, the IC50 on GRK2 was found to be 2 nM; in test [1], 96.2 nM.

On to `Cn1c(CNc2cccc(C(=O)N[C@H]3CCOc4ccc(F)cc43)c2)nnc1-c1ccncn1`, for which the IC50 at GRK2 was 24 nM; in test [1] it was more than 30000 nM.

Regarding `Cn1c(CNc2cccc(C(=O)N[C@@H]3CC(C)(C)Oc4ccccc43)c2)nnc1-c1ccncn1`, the IC50 amounted to 45 nM on GRK2 and 9090 nM in test [1].

As for `Cn1c(CNc2cccc(C(=O)N[C@H]3CC(C)(C)Oc4ccccc43)c2)nnc1-c1ccncn1`, the IC50 at GRK2 is 30 nM; in test [1], more than 30000 nM.

Take `Cn1c(CNc2cccc(C(=O)N[C@@H]3CCOc4c3cccc4C(F)(F)F)c2)nnc1-c1ccncn1`: the IC50 on GRK2 is 3.8 nM; in test [1] it was more than 972 nM.

On to `Cn1c(CNc2cccc(C(=O)N[C@H]3CCOc4c3cccc4C(F)(F)F)c2)nnc1-c1ccncn1`, for which the IC50 on GRK2 was 9.7 nM; in test [1], more than 30000 nM.

For `Cn1c(CNc2cccc(C(=O)N[C@@H]3CCOc4cc(C(F)(F)F)ccc43)c2)nnc1-c1ccncn1`, the IC50 at GRK2 was 56 nM; in test [1], 93.2 nM.
